Reference: US20260226064A1, “POLYCYCLIC COMPOUND FOR TREATING NEUROLOGICAL DISEASES AND TUMORS” (Shanghai Institute of Organic Chemistry, Chinese Academy of …, priority 2023, published 2026)

Test system: acetylated microtubule in HEK293T cells
Assay: Microtubule-Stabilizing Activity Assay (acetylated microtubule immunoblot, HEK293T, colchicine challenge)
Format: cell-based
Conditions: 1 h pre-incubation, then colchicine 1 μM 3 h, relative to CNDR-51657 at 500 nM = 1.00; for Microtubule-Stabilizing Activity 50 nM: compound 50 nM; for Microtubule-Stabilizing Activity 500 nM: compound 500 nM
Procedure: Compound solvent: 100% dimethyl sulfoxide (DMSO). Cell line: HEK293T (ATCC, CRL3216). Culture conditions: Cells were cultured in Dulbecco's Modified Eagle's Medium (DMEM) containing 10% fetal bovine serum and 1% penicillin/streptomycin. Cells were cultured at 37° C. in a Thermo-Fisher incubator with a humidified atmosphere of 5% carbon dioxide.
One day prior to the experiment, 100,000 cells were seeded at a density of 200,000 cells/ml in a 24-well plate.
On the day of the experiment, 20 μl of PBS phosphate buffer containing the test compound at experimental concentrations or an equivalent volume of DMSO was added to each well. After incubating at 37° C. for 1 hour, colchicine was added to each well at a final concentration of 1 μM, followed by an additional 3-hour incubation at 37° C. The plate was then placed on ice. The medium in each well was removed, and the cells were washed with ice-cold PBS. After aspirating the PBS, 0.1 mL of ice-cold RIPA lysis buffer (containing 0.5% sodium deoxycholate, 0.1% SDS, 1% NP-40, 5 mM EDTA, pH 8.0) was quickly added. Prior to use, a commercial protease inhibitor cocktail (1:500) and 1 μM deacetylase inhibitor Trichostatin A (Sangon Biotech Co., Ltd.) were added to the cell lysis buffer. The cell lysate were transferred to a 1.5 ml centrifuge tube, sonicated, and centrifuged at 13,000 rpm for 10 minutes. The supernatant was collected, and protein concentration was determined using the BCA assay.
Based on existing literature (Black, 1989; Kurt, 2011), acetylated microtubule was used as an indicator of microtubule polymerization to assess the microtubule-stabilizing efficacy of the compounds. HEK293T cell lysates were analyzed by SDS-PAGE (7.5% gel) and immunoblotted using acetylated microtubule antibody (1:20,000, Sigma-Aldrich, T7451) and α-microtubule antibody (1:2,000, Proteintech, 11224-1-AP). After incubation with fluorescent dye-conjugated IgG (1:40,000, Licor), the blots were visualized using an Odyssey-Dlx imaging system. Grayscale analysis was performed using ImageJ.
The compound activity was quantified with the microtubule-stabilizing activity of CNDR-51657 (C5) (Jane, 2016) at 500 nM as 1.00.

| Compound | Microtubule-Stabilizing Activity 50 nM | Microtubule-Stabilizing Activity 500 nM |
| --- | --- | --- |
| 6-(4-(((1R,5S,6r)-3-Azabicyclo[3.1.0]hexan-6-yl)methoxy)-2,6-difluorophenyl)-5-methyl-N-(2,2,2-trifluoroethyl)-[1,2,4]triazolo[1,5-a]pyrimidin-7-amine [Example 35] | 0.87 | 1.80 |
| CC(C)[C@@H](C)Nc1c(-c2c(F)cc(OC3CC4(CNC4)C3)cc2F)c(Cl)nc2ncnn12 [Example 1, (R)-6-(4-((2-azaspiro[3.3]hept-6-yl)oxy)-2,6-difluorophenyl)-5-chloro-N-(3-methylbut-2-yl)-[1,2,4]triazolo[1,5-a]pyrimidin-7-amine] | 0.36 | 0.71 |
| CC(C)[C@@H](C)Nc1c(-c2c(F)cc(OC3CC4(C3)CN(C)C4)cc2F)c(Cl)nc2ncnn12 [Example 2, (R)-6-(4-((2-methyl-2-azaspiro[3.3]hept-6-yl)oxy)-2,6-difluorophenyl)-5-chloro-N-(3-methylbut-2-yl)-[1,2,4]triazolo[1,5-a]pyrimidin-7-amine] | 0.29 | 0.71 |
| C[C@H](Nc1c(-c2c(F)cc(OC3CC4(CNC4)C3)cc2F)c(Cl)nc2ncnn12)C(F)(F)F [Example 3, (S)-6-(4-((2-Azaspiro[3.3]heptan-6-yl)oxy)-2,6-difluorophenyl)-5-chloro-N-(1,1,1-trifluoropropan-2-yl)-[1,2,4]triazolo[1,5-a]pyrimidin-7-amine] | 0.36 | 0.49 |
| CC(C)[C@@H](C)Nc1c(-c2c(F)cc(OC3CC4(CCNCC4)C3)cc2F)c(Cl)nc2ncnn12 [Example 5, (R)-6-(4-((7-Azaspiro[3.5]nonan-2-yl)oxy)-2,6-difluorophenyl)-5-chloro-N-(3-methylbutan-2-yl)-[1,2,4]triazolo[1,5-a]pyrimidin-7-amine] | 0.41 | 0.76 |
| CC(C)[C@@H](C)Nc1c(-c2c(F)cc(OC3CC4(CCN(C)CC4)C3)cc2F)c(Cl)nc2ncnn12 [Example 6, (R)-6-(4-((7-Methyl-7-azaspiro[3.5]nonan-2-yl)oxy)-2,6-difluorophenyl)-5-chloro-N-(3-methylbutan-2-yl)-[1,2,4]triazolo[1,5-a]pyrimidin-7-amine] | 0.25 | 0.38 |
| C[C@H](Nc1c(-c2c(F)cc(OC3CC4(CCNCC4)C3)cc2F)c(Cl)nc2ncnn12)C(F)(F)F [Example 7, (S)-6-(4-((7-Azaspiro[3.5]nonan-2-yl)oxy)-2,6-difluorophenyl)-5-chloro-N-(1,1,1-trifluoropropan-2-yl)-[1,2,4]triazolo[1,5-a]pyrimidin-7-amine] | 0.42 | 0.81 |
| C[C@H](Nc1c(-c2c(F)cc(OC3CC4(CCN(C)CC4)C3)cc2F)c(Cl)nc2ncnn12)C(F)(F)F [Example 8, (S)-6-(4-((7-Methyl-7-azaspiro[3.5]nonan-2-yl)oxy)-2,6-difluorophenyl)-5-chloro-N-(1,1,1-trifluoropropan-2-yl)-[1,2,4]triazolo[1,5-a]pyrimidin-7-amine] | 0.43 | 0.31 |
| CNC1CC2(C1)CC(Oc1cc(F)c(-c3c(Cl)nc4ncnn4c3N[C@H](C)C(C)C)c(F)c1)C2 (stereo partly drawn) [Example 9, (R)-5-Chloro-6-(2,6-difluoro-4-((6-(methylamino)spiro[3.3]heptan-2-yl)oxy)phenyl)-N-(3-methylbutan-2-yl)-[1,2,4]triazolo[1,5-a]pyrimidin-7-amine] | 0.53 | 1.74 |
| CC(C)[C@@H](C)Nc1c(-c2c(F)cc(OC3CC4(C3)CC(N(C)C)C4)cc2F)c(Cl)nc2ncnn12 (stereo partly drawn) [Example 10, (R)-5-Chloro-6-(4-((6-(dimethylamino)spiro[3.3]heptan-2-yl)oxy)-2,6-difluorophenyl)-N-(3-methylbutan-2-yl)-[1,2,4]triazolo[1,5-a]pyrimidin-7-amine] | 0.26 | 0.28 |
| C[C@H](Nc1c(-c2c(F)cc(OC3CC4(C3)CC(N(C)C)C4)cc2F)c(Cl)nc2ncnn12)C(F)(F)F (stereo partly drawn) [Example 12, (S)-5-chloro-6-(4-((6-(dimethylamino)spiro[3.3]heptan-2-yl)oxy)-2,6-difluorophenyl)-N-(1,1,1-trifluoropropan-2-yl)-[1,2,4]triazolo[1,5-a]pyrimidin-7-amine] | 0.30 | 0.78 |
| CNC1CC2(C1)CC(Oc1cc(F)c(-c3c(Cl)nc4ncnn4c3N[C@H](C)C3CCC3)c(F)c1)C2 (stereo partly drawn) [Example 13, (R)-5-chloro-N-(1-cyclobutylethyl)-6-(2,6-difluoro-4-((6-(methylamino)spiro[3.3]heptan-2-yl)oxy)phenyl)-[1,2,4]triazolo[1,5-a]pyrimidin-7-amine] | 0.35 | 1.39 |
| C[C@@H](Nc1c(-c2c(F)cc(OC3CC4(C3)CC(N(C)C)C4)cc2F)c(Cl)nc2ncnn12)C1CCC1 (stereo partly drawn) [Example 14, (R)-5-Chloro-N-(1-cyclobutylethyl)-6-(4-((6-(dimethylamino)spiro[3.3]heptan-2-yl)oxy)-2,6-difluorophenyl)-[1,2,4]triazolo[1,5-a]pyrimidin-7-amine] | 0.23 | 1.98 |
| CNC1CC2(C1)CC(Oc1cc(F)c(-c3c(Cl)nc4ncnn4c3NCC(F)(F)F)c(F)c1)C2 (stereo not drawn) [Example 15, 5-Chloro-6-(2,6-difluoro-4-((6-(methylamino)spiro[3.3]heptan-2-yl)oxy)phenyl)-N-(2,2,2-trifluoroethyl)-[1,2,4]triazolo[1,5-a]pyrimidin-7-amine] | 0.15 | 1.60 |
| CN(C)C1CC2(CC(Oc3cc(F)c(-c4c(Cl)nc5ncnn5c4NCC(F)(F)F)c(F)c3)C2)C1 (stereo not drawn) [Example 16] | 0.07 | 1.66 |
| CNC1CCC2(CC1)CC(Oc1cc(F)c(-c3c(Cl)nc4ncnn4c3N[C@H](C)C(C)C)c(F)c1)C2 (stereo partly drawn) [Example 17, (R)-5-Chloro-6-(2,6-difluoro-4-((7-(methylamino)spiro[3.5]nonan-2-yl)oxy)phenyl)-N-(3-methylbutan-2-yl)-[1,2,4]triazolo[1,5-a]pyrimidin-7-amine] | 0.21 | 0.89 |
| CC(C)[C@@H](C)Nc1c(-c2c(F)cc(OC3CC4(CCC(N(C)C)CC4)C3)cc2F)c(Cl)nc2ncnn12 (stereo partly drawn) [Example 18, (R)-5-Chloro-6-(2,6-difluoro-4-((7-(dimethylamino)spiro[3.5]nonan-2-yl)oxy)phenyl)-N-(3-methylbutan-2-yl)-[1,2,4]triazolo[1,5-a]pyrimidin-7-amine] | 0.07 | 0.68 |
| CNC1CCC2(CC1)CC(Oc1cc(F)c(-c3c(Cl)nc4ncnn4c3N[C@@H](C)C(F)(F)F)c(F)c1)C2 (stereo partly drawn) [Example 19, (S)-5-Chloro-6-(2,6-difluoro-4-((7-(methylamino)spiro[3.5]nonan-2-yl)oxy)phenyl)-N-(1,1,1-trifluoropropan-2-yl)-[1,2,4]triazolo[1,5-a]pyrimidin-7-amine] | 0.16 | 0.62 |
